The target of this test is T1, HIV-1 protease (Human immunodeficiency virus type 1 group M subtype B, UniProt P04585).
T1 construct: made in house; host or cells: E. coli K12 L507/pHP10D (NRRL B-18560)
Briefly: biochemical. The conditions noted are these: for inhibition at 1 µg/mL: at 1000 ng/ml, read-out: Fluorescence Assay, given as ICxx (1000): xx is the percent inhibition. The protocol: A culture of E. coli K12 L507/pHP10D was grown to mid-log phase at 32° C. in LB media containing 12.5 μg/ml tetracycline. The cultivation temperature was quickly elevated to 40° C. to induce gene expression, and the cells were allowed to grow for 2.5 hours at this temperature before the culture was quickly chilled on ice. The cells were centrifuged and the cell pellet was resuspended in 20 mL 50 mmol MES buffer (pH 6.0) containing 1 mmol EDTA, 1 mmol DTT, 1 mmol PMSF and 10% glycerol ("Buffer A"). Cells were lysed by sonication using a Fischer Model 300 Dismembrator and a microtip probe. Following centrifugation at 27,000 x g, the supernatant was diluted to a total volume of 60 mL with Buffer A and loaded onto a 2.0×19 cm QAE-Sepharose column (1 mL/min, 4° C.), that had been equilibrated in Buffer A. The column was washed isocratically for 180 min and then eluted with a gradient eluent of 0-1.0M NaCl in Buffer A over 120 min. Enzymatic activity was measured by HPLC using the synthetic peptide SQNYPIV as described in Margolin et al., Biochem. Biophys. Res. Commun., […], 554-560 (1990); the production of the p1 peptide (SQNY) was measured.
N^a -Biotin-[…]N^e -FITC)-OH SEQ ID NO: 1
The following buffers and solutions are used in the Fluorescence HIV-1 Protease Inhibitor Assay:
To each well of a round bottom, 96-well plate is added 20 μL of the Enzyme Solution followed by 10 μL of the compound to be evaluated in a 20% aqueous dimethylsulfoxide solution. Purified HIV-1 protease was obtained as described above. The resulting solution is incubated for one hour at room temperature and then 20 μL of a solution containing the substrate, N^a -Biotin-[…]N^e-FITC)-OH, in MES-ALB buffer ([…]) is added to each well. The solutions are then incubated for 16 hours at room temperature and then each well is diluted with 150 μL of MES-ALB buffer.
To each well of a second round bottom, 96-well Pandex plate is added 25 uL of the Avidin Coated Beads Solution. Then, to each well is added 25 μL of the diluted incubation solutions, prepared above. The solutions are mixed thoroughly and the plates are loaded into a Pandex® machine, washed, evacuated and read. Sample detection was performed by excitation at 485 nm, reading the resulting epifluorescence at 535 nm.

The mark [1] stands for this setting: read-out: Fluorescence Assay IC50 (converted).

Molecules are shown by their SMILES. Like-named read-outs stand apart in the source and are kept apart here.

By IC50 is commonly meant the concentration needed to halve the response being measured. As to `C[C@H](NC(=O)OCc1ccccc1)C(=O)N[C@@H](Cc1ccccc1)[C@@H]1O[C@@H]1[C@H](Cc1ccccc1)NC(=O)[C@H](C)NC(=O)OCc1ccccc1` [Example 20, 1,6-Diphenyl-2(S),5(S)-di[N-[2(S)-N(benzyloxycarbonyl)amino]propanoyl]amino-3,4-cis-epoxyhexane], under setting [1], the IC50 was 803 nM.
Still for that read-out and setting: in the case of `CCC[C@H](NC(=O)N(C)Cc1ccc2ccccc2n1)C(=O)N[C@@H](Cc1ccccc1)[C@@H]1O[C@@H]1[C@H](Cc1ccccc1)NC(=O)[C@H](CCC)NC(=O)N(C)Cc1ccc2ccccc2n1` [Example 21, 1,6-Diphenyl-2(S),5(S)-di[N-[2(S)-N[[N(methyl)-N(quinolin-2-ylmethyl)amino]carbonyl]aminopentanoyl]amino]-3,4-cis epoxyhexane] it was 66.1 nM; in that of `CCCC[C@H](NC(=O)N(C)Cc1ccc2ccccc2n1)C(=O)N[C@@H](Cc1ccccc1)[C@@H]1O[C@@H]1[C@H](Cc1ccccc1)NC(=O)[C@H](CCCC)NC(=O)N(C)Cc1ccc2ccccc2n1` [Example 22, 1,6-Diphenyl-2(S),5(S)-di[N-[2(S)-N[[N(methyl)-N(quinolin-2-ylmethyl)amino]carbonyl]aminohexanoyl]amino]-3,4-cis-epoxyhexane], 437 nM.
Take `CC(C)(C)C(NC(=O)OCc1cccnc1)C(=O)NC(Cc1ccccc1)C1OC1C(Cc1ccccc1)NC(=O)C(NC(=O)OCc1cccnc1)C(C)(C)C` [Example 23, 1,6-Diphenyl-2(S),5(S)-di[N-[2(S)-N(pyrid-3-ylmethoxycarbonyl)amino-3,3-dimethylbutanoyl]amino]-3,4-cis-epoxyhexane]: the “Fluorescence Assay IC50” value (16 h incubation at room temperature, MES-ALB buffer pH 5.5, normalized to a positive control) was found to be 0.497 µg/mL.
For the compound `CC[C@H](C)[C@H](NC(=O)N(C)Cc1ccccn1)C(=O)N[C@@H](Cc1ccccc1)[C@@H]1O[C@@H]1[C@H](Cc1ccccc1)NC(=O)[C@@H](NC(=O)N(C)Cc1ccccn1)[C@@H](C)CC` [Example 24, 1,6-Diphenyl-2(S),5(S)-di[N-[2(S)-N[[N(methyl)-N(pyrid-2-ylmethyl)amino]carbonyl]amino-3(S)-methylpentanoyl]amino]-3,4-cis-epoxyhexane], the IC50 (16 h incubation at room temperature, MES-ALB buffer pH 5.5, normalized to a positive control, read-out: Fluorescence Assay IC50 (converted)) was 163 nM.
As a reminder, the inhibition is the percentage by which the read-out fell short of the control. For the compound `CCCC[C@H](NC(=O)OCc1ccccn1)C(=O)N[C@@H](Cc1ccccc1)[C@@H]1O[C@@H]1[C@H](Cc1ccccc1)NC(=O)[C@H](CCCC)NC(=O)OCc1ccccn1` [Example 25, 1,6-Diphenyl-2(S),5(S)-di[N-[2(S)-N(pyrid-2-ylmethoxycarbonyl)amino]hexanoyl]amino-3,4-cis-epoxyhexane], the inhibition at 1 µg/mL was 40%.
As for `CC(C)[C@H](NC(=O)c1ccc2ccccc2n1)C(=O)N[C@@H](Cc1ccccc1)[C@@H]1O[C@@H]1[C@H](Cc1ccccc1)NC(=O)[C@@H](NC(=O)c1ccc2ccccc2n1)C(C)C` [Example 26, 1,6-Diphenyl-2(S),5(S)-di[N-[2(S)-N(quinolin-2-ylcarbonyl)amino-3-methylbutanoyl]amino]-3,4-cis-epoxyhexane], the inhibition at 1 µg/mL is 23%.
With `CN(Cc1ccc2ccccc2n1)C(=O)N[C@@H](CC#N)C(=O)N[C@@H](Cc1ccccc1)[C@@H]1O[C@@H]1[C@H](Cc1ccccc1)NC(=O)[C@H](CC#N)NC(=O)N(C)Cc1ccc2ccccc2n1` [Example 27, 1,6-Diphenyl-2(S),5(S)-di [N-[2(S)-N[[N(methyl)-N(quinolin-2-ylmethyl)amino]carbonyl]amino-3-cyanopropanoyl]amino]-3,4-cis-epoxyhexane], under setting [1], the IC50 is 30.7 nM.
Same read-out and setting: in the case of `CC[C@H](NC(=O)N(C)Cc1ccccn1)C(=O)N[C@@H](Cc1ccccc1)[C@@H]1O[C@@H]1[C@H](Cc1ccccc1)NC(=O)[C@H](CC)NC(=O)N(C)Cc1ccccn1` [Example 28, 1,6-Diphenyl-2(S),5(S)-di[N-[2(S)-N[[N(methyl)-N(pyrid-2-ylmethyl)amino]carbonyl]aminobutanoyl]amino]-3,4-cis-epoxyhexane] it was 1090 nM.
The same measure, in the same setting: in the case of `Cc1cccc(COC(=O)N[C@H](C(=O)N[C@@H](Cc2ccccc2)[C@@H]2O[C@@H]2[C@H](Cc2ccccc2)NC(=O)[C@@H](NC(=O)OCc2cccc(C)n2)C(C)C)C(C)C)n1` [Example 29, 1,6-Diphenyl-2(S),5(S)-di[N-[2(S)-N(6-methylpyrid-2-ylmethoxycarbonyl)amino-3-methylbutanoyl]amino]-3,4-cis-epoxyhexane] it was 39.2 nM; in that of `CC(C)(C)[C@H](NC(=O)OCc1ccc2ccccc2n1)C(=O)N[C@@H](Cc1ccccc1)[C@@H]1O[C@@H]1[C@H](Cc1ccccc1)NC(=O)[C@@H](NC(=O)OCc1ccc2ccccc2n1)C(C)(C)C` [Example 30], 382 nM.
Still for that read-out and setting: in the case of `CC[C@H](C)[C@H](NC(=O)NCc1ccccn1)C(=O)N[C@@H](Cc1ccccc1)[C@@H]1O[C@@H]1[C@H](Cc1ccccc1)NC(=O)[C@@H](NC(=O)NCc1ccccn1)[C@@H](C)CC` [Example 31] it was 32.4 nM.
As to `CC[C@H](NC(=O)N(C)Cc1ccc2ccccc2n1)C(=O)N[C@@H](Cc1ccc2ccccc2c1)[C@@H]1O[C@@H]1[C@H](Cc1ccc2ccccc2c1)NC(=O)[C@H](CC)NC(=O)N(C)Cc1ccc2ccccc2n1` [Example 32], the IC50 (read-out: Fluorescence Assay average IC50 (marked *) (converted)) is 181 nM.
For `CC[C@H](C)[C@H](NC(=O)N(C)Cc1ccccn1)C(=O)N[C@@H](Cc1ccc2ccccc2c1)[C@@H]1O[C@@H]1[C@H](Cc1ccc2ccccc2c1)NC(=O)[C@@H](NC(=O)N(C)Cc1ccccn1)[C@@H](C)CC` [Example 33, 1,6-Dinaphth-2-yl-2(S),5(S)-di[N-[2(S)-N-[[N(methyl)-N(pyrid-2-ylmethyl)amino]carbonyl]amino-3(S)-methylpentanoyl]amino]-3,4-cis-epoxyhexane], the inhibition at 1 µg/mL is 25%.
Still for that read-out and setting: in the case of `CC[C@H](NC(=O)N(C)Cc1ccccn1)C(=O)N[C@@H](Cc1ccc2ccccc2c1)[C@@H]1O[C@@H]1[C@H](Cc1ccc2ccccc2c1)NC(=O)[C@H](CC)NC(=O)N(C)Cc1ccccn1` [Example 34, 1,6-Dinaphth-2-yl-2(S),5(S)-di[N-[2(S)-N-[[N(methyl)-N (pyrid-2-ylmethyl)amino]carbonyl]aminobutanoyl]amino]-3,4-cis-epoxyhexane] it was 34%.
On the same count and under the same terms, in the case of `CCC(NC(=O)N(C)Cc1ccccn1)C(=O)NC(CSc1ccc2ccccc2c1)C1OC1C(CSc1ccc2ccccc2c1)NC(=O)C(CC)NC(=O)N(C)Cc1ccccn1` [Example 35, 1,6-Dinaphth-2-ylthio-2(S),5(S)-di[N-[2(S)-N-[[N(methyl)-N (pyrid-2-ylmethyl)amino]carbonyl]aminobutanoyl]amino]-3,4-cis-epoxyhexane] it was 23%; in that of `CC(C)[C@H](NC(=O)OCc1ccccn1)C(=O)N[C@@H](CCc1ccccc1)[C@@H]1O[C@@H]1[C@H](CCc1ccccc1)NC(=O)[C@@H](NC(=O)OCc1ccccn1)C(C)C` [Example 36], 26%.
As for `CC[C@H](NC(=O)N(C)Cc1ccccn1)C(=O)N[C@@H](CCCc1ccccc1)[C@@H]1O[C@@H]1[C@H](CCCc1ccccc1)NC(=O)[C@H](CC)NC(=O)N(C)Cc1ccccn1` [Example 37, 1,10-Diphenyl-4(S),7(S)-di[N-[2(S)-N-[[N(methyl)-N(pyrid-2-ylmethyl)amino]carbonyl]aminobutanoyl]amino]-5,6-cis-epoxydecane], under setting [1], the IC50 is 206 nM.
The same measure, in the same setting: in the case of `CC[C@H](NC(=O)N(C)Cc1ccc2ccccc2n1)C(=O)N[C@@H](CCCc1ccccc1)[C@@H]1O[C@@H]1[C@H](CCCc1ccccc1)NC(=O)[C@H](CC)NC(=O)N(C)Cc1ccc2ccccc2n1` [Example 38, 1,10-Diphenyl-4(S),7(S)-di[N-[2(S)-N-[[N(methyl)-N(quinolin-2-ylmethyl)amino]carbonyl]aminobutanoyl]amino]-5,6-cis-epoxydecane] it was 23.8 nM.

Source of the values: patent publication US5578608A, “Symmetrical diaryl and diheteroanyl cis epoxy alkanes antiviral compounds” (Eli Lilly and Company, priority 1995, dated 1996).
